Measurements from paper PMC11357397, “Design, Synthesis, and Evaluation of Oleyl-WRH Peptides for siRNA Delivery” (Pharmaceuticals, 2024).

Assays:
Assay in all cases: In vitro cytotoxicity of peptide/siRNA complexes (MTS)
Conditions in all cases: 35% v/v DMSO
MCF-7 cells = assay type: cell-based
Method: (§1) This study aimed to assess these complexes’ potential as a delivery system for siRNA-mediated gene silencing in cancer cells. Our initial experiments involved the use of the MDA-MB-231 (Figure 6A), MCF-7 (Figure 6B), SK-OV-3 (Figure 7A), and HEK-293 (Figure 7B) cell lines for cell culture and in vitro cytotoxicity studies. After 72 h of incubation, we used an MTS test to determine the cytotoxicity of the developed peptides complexed with scrambled siRNA. The peptide/siRNA complexes were applied to the cells at various concentrations and N/P ratios (from 10 to 100). […] This finding corroborates the results from our previous reports.
(§2) The cell lines selected for this study included MDA-MB-231 (ATCC No. HTB-26, triple-negative breast cancer cell line), MCF-7 (ATCC No. HTB-22, breast adenocarcinoma cells), HEK-293 (ATCC No. CRL-1573, normal kidney cells), and SK-OV-3 (ATCC No. HTB-77, human epithelial ovary adenocarcinoma cells). […]
(§3) The cytotoxicity of the synthesized oleyl-conjugated peptides complexed with scrambled siRNA was evaluated in vitro using the aforementioned cell lines. […]
(§4) For the assay, 10,000 cells per 0.1 mL were seeded into each well of a 96-well plate using a multichannel pipette and allowed to adhere for 24 h in a standard cell culture incubator. Cell health and confluency were assessed after the initial 24 h period. […]

MDA-MB-231 cells = assay type: cell-based
Method: as §1, §2, §3, §4

SK-OV-3 cells = assay type: cell-based, human
Method: as §1, §2, §3, §4

HEK-293 cells = assay type: cell-based
Method: as §1
The cell lines selected for this study included MDA-MB-231 (ATCC No. HTB-26, triple-negative breast cancer cell line), MCF-7 (ATCC No. HTB-22, breast adenocarcinoma cells), HEK-293 (ATCC No. CRL-1573, normal kidney cells), and SK-OV-3 (ATCC No. HTB-77, human epithelial ovary adenocarcinoma cells).
as §3, §4

Measured: cells to which the positive control was cytotoxic

C[S+](C)[O-] [DMSO]
over 70%: all assays above
